Measurements: patent US8933230B2, “Phosphorus-containing group-substituted quinoline, its preparation process, medical composition containing the compounds and application” (priority 2011, dated 2015)

Key:
Assay in all cases: KinomeScan kinase panel
Format in all cases: binding
[1] = biological target: T1, ABL1(Q252H)-nonphosphorylated (Homo sapiens, UniProt P00519, Q252H)
T1 construct: purchased DiscoveRx Corporation (KinomeScan)
Method: (§1) In this example, the compound prepared in Example 10, N1-[4-[[7-[[1-(diethoxyphosphorylmethyl)-4-piperidinyl]methoxyl]-6-methoxyl-4-quinolyl]oxyl]-3-fluorophenyl]-N1′-(4-fluorophenyl)cyclopropane-1,1-dicarboxamide is tested for the inhibitory effect in the 442-kinase panel of KinomeScan™ (www.kinomescan.com) from DiscoveRx Corporation (4215 Sorrento Valley Blvd, San Diego, Calif. 92121) at 1000 nM of the compound concentration, the results are shown in the following Table 5:
(§2) For the detailed information of the screening technique, see Fabian, M. A. et al, Nat., Biotechnol. 2005, 23, 329 and Karaman, M. W. et al, Nat., Biotechnol. 2008, 26, 127. It can be seen from the following representative results that, the compound according to the present invention has significant inhibitory effect on kinases including c-Met, KDR or VEGFR2, RET, PDGFR-β, c-KIT, Flt3, MEK5, DDR1, LOK, CSF1R, EPHA7, EPHA8, EPHB6, MKNK2, BLK, HIPK4, HCK, Flt4 and the mutants thereof

ACVR2A = biological target: T2, ACVR2A (Homo sapiens, UniProt P27037)
T2 construct: purchased DiscoveRx Corporation (KinomeScan)
Method: as §1, §2

AKT3 = biological target: T3, AKT3 (Homo sapiens, UniProt Q9Y243)
T3 construct: purchased DiscoveRx Corporation (KinomeScan)
Method: as §1, §2

ARK5 = biological target: T4, ARK5 (Homo sapiens, UniProt O60285)
T4 construct: purchased DiscoveRx Corporation (KinomeScan)
Method: as §1, §2

ASK2 = biological target: T5, ASK2 (Homo sapiens, UniProt O95382)
T5 construct: purchased DiscoveRx Corporation (KinomeScan)
Method: as §1, §2

BMPR2 = biological target: T6, BMPR2 (Homo sapiens, UniProt Q13873)
T6 construct: purchased DiscoveRx Corporation (KinomeScan)
Method: as §1, §2

CASK = biological target: T7, CASK (Homo sapiens, UniProt O14936)
T7 construct: purchased DiscoveRx Corporation (KinomeScan)
Method: as §1, §2

CIT = biological target: T8, CIT (Homo sapiens, UniProt O14578)
T8 construct: purchased DiscoveRx Corporation (KinomeScan)
Method: as §1, §2

CSNK1E = biological target: T9, CSNK1E (Homo sapiens, UniProt P49674)
T9 construct: purchased DiscoveRx Corporation (KinomeScan)
Method: as §1, §2

DDR2 = biological target: T10, DDR2 (Homo sapiens, UniProt Q16832)
T10 construct: purchased DiscoveRx Corporation (KinomeScan)
Method: as §1, §2

EGFR(L858R,T790M) = biological target: T11, EGFR(L858R,T790M) (Homo sapiens, UniProt P00533, L858R/T790M)
T11 construct: purchased DiscoveRx Corporation (KinomeScan)
Method: as §1, §2

EIF2AK1 = biological target: T12, EIF2AK1 (Homo sapiens, UniProt Q9BQI3)
T12 construct: purchased DiscoveRx Corporation (KinomeScan)
Method: as §1, §2

EPHA5 = biological target: T13, EPHA5 (Homo sapiens, UniProt P54756)
T13 construct: purchased DiscoveRx Corporation (KinomeScan)
Method: as §1, §2

EPHB6 = biological target: T14, EPHB6 (Homo sapiens, UniProt O15197)
T14 construct: purchased DiscoveRx Corporation (KinomeScan)
Method: as §1, §2

ERBB2 = biological target: T15, ERBB2 (Homo sapiens, UniProt P04626)
T15 construct: purchased DiscoveRx Corporation (KinomeScan)
Method: as §1, §2

ERK1 = biological target: T16, ERK1 (Homo sapiens, UniProt P27361)
T16 construct: purchased DiscoveRx Corporation (KinomeScan)
Method: as §1, §2

FGFR4 = biological target: T17, FGFR4 (Homo sapiens, UniProt P22455)
T17 construct: purchased DiscoveRx Corporation (KinomeScan)
Method: as §1, §2

FLT3(D835Y) = biological target: T18, FLT3(D835Y) (Homo sapiens, UniProt P36888, D835Y)
T18 construct: purchased DiscoveRx Corporation (KinomeScan)
Method: as §1, §2

HIPK3 = biological target: T19, HIPK3 (Homo sapiens, UniProt Q9H422)
T19 construct: purchased DiscoveRx Corporation (KinomeScan)
Method: as §1, §2

HIPK4 = biological target: T20, HIPK4 (Homo sapiens, UniProt Q8NE63)
T20 construct: purchased DiscoveRx Corporation (KinomeScan)
Method: as §1, §2

HUNK = biological target: T21, HUNK (Homo sapiens, UniProt P57058)
T21 construct: purchased DiscoveRx Corporation (KinomeScan)
Method: as §1, §2

MAP4K5 = biological target: T22, MAP4K5 (Homo sapiens, UniProt Q9Y4K4)
T22 construct: purchased DiscoveRx Corporation (KinomeScan)
Method: as §1, §2

MLK1 = biological target: T23, MLK1 (Homo sapiens, UniProt P80192)
T23 construct: purchased DiscoveRx Corporation (KinomeScan)
Method: as §1, §2

MLK2 = biological target: T24, MLK2 (Homo sapiens, UniProt Q02779)
T24 construct: purchased DiscoveRx Corporation (KinomeScan)
Method: as §1, §2

PAKC-beta = biological target: T25, PAKC-beta (Homo sapiens, UniProt P22694)
T25 construct: purchased DiscoveRx Corporation (KinomeScan)
Method: as §1, §2

PHKG2 = biological target: T26, PHKG2 (Homo sapiens, UniProt P15735)
T26 construct: purchased DiscoveRx Corporation (KinomeScan)
Method: as §1, §2

PIK3CA(E542K) = biological target: T27, PIK3CA(E542K) (Homo sapiens, UniProt P42336, E542K)
T27 construct: purchased DiscoveRx Corporation (KinomeScan)
Method: as §1, §2

PIK3CA(M1043I) = biological target: T28, PIK3CA(M1043I) (Homo sapiens, UniProt P42336, M1043I)
T28 construct: purchased DiscoveRx Corporation (KinomeScan)
Method: as §1, §2

PIP5K1A = biological target: T29, PIP5K1A (Homo sapiens, UniProt Q99755)
T29 construct: purchased DiscoveRx Corporation (KinomeScan)
Method: as §1, §2

PLK3 = biological target: T30, PLK3 (Homo sapiens, UniProt Q9H4B4)
T30 construct: purchased DiscoveRx Corporation (KinomeScan)
Method: as §1, §2

RIPK2 = biological target: T31, RIPK2 (Homo sapiens, UniProt O43353)
T31 construct: purchased DiscoveRx Corporation
Method: as §1, §2

[2] = biological target: T32, RPS6KA5(kin.Dom.2-C-termimal) (Homo sapiens, UniProt O75582)
T32 construct: kin.Dom.2; purchased DiscoveRx Corporation
Method: as §1, §2

SRPK2 = biological target: T33, SRPK2 (Homo sapiens, UniProt P78362)
T33 construct: purchased DiscoveRx Corporation (KinomeScan)
Method: as §1, §2

SgK110 = biological target: T34, SgK110 (Homo sapiens, UniProt P0C264)
T34 construct: purchased DiscoveRx Corporation (KinomeScan)
Method: as §1, §2

TBK1 = biological target: T35, TBK1 (Homo sapiens, UniProt Q9UHD2)
T35 construct: purchased DiscoveRx Corporation (KinomeScan)
Method: as §1, §2

TEC = biological target: T36, TEC (Homo sapiens, UniProt P42680)
T36 construct: purchased DiscoveRx Corporation (KinomeScan)
Method: as §1, §2

T23 sequence (P80192 whole entry): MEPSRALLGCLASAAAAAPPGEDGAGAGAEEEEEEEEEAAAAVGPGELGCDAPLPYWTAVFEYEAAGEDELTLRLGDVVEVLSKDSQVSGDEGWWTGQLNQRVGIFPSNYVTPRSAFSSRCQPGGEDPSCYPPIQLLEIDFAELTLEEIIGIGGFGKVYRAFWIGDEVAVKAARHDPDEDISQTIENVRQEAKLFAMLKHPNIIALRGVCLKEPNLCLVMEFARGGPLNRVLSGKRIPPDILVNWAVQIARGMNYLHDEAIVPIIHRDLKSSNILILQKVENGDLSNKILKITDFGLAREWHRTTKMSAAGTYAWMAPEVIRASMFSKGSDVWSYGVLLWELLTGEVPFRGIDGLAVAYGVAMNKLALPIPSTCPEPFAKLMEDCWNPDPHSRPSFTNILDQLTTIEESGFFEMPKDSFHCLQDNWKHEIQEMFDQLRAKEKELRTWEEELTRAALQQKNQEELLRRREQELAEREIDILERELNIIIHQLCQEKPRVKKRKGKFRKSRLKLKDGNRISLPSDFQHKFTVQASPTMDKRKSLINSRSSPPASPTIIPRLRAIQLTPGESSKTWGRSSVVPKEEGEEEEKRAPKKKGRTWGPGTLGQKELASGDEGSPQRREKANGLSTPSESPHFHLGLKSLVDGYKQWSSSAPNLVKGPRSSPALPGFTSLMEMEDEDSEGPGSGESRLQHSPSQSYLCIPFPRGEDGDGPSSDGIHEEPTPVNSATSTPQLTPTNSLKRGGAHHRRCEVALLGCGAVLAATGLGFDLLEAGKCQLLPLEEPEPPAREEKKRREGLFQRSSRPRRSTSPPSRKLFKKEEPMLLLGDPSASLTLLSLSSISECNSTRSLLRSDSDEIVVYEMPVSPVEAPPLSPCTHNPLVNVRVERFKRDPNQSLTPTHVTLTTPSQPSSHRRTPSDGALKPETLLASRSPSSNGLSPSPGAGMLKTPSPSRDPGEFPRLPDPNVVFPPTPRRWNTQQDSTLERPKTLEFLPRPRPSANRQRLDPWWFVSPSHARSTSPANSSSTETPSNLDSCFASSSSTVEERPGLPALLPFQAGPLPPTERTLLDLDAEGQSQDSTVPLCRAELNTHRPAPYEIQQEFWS
T20 sequence (Q8NE63 whole entry): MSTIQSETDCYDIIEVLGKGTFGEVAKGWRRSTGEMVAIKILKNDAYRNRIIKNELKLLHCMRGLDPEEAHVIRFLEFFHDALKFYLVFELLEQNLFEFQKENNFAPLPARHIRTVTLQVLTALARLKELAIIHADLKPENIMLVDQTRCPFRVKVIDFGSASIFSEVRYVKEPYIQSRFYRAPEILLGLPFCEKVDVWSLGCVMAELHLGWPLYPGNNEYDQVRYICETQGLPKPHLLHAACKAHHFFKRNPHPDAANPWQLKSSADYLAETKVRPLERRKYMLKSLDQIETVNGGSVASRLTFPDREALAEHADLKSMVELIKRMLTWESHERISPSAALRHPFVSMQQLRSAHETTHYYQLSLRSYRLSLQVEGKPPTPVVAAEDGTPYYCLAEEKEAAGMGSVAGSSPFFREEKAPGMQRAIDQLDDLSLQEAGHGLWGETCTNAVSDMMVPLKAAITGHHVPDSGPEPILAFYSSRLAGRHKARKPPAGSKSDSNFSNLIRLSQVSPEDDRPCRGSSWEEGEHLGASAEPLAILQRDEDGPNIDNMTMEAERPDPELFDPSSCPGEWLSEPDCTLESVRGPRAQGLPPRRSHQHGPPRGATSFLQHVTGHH
T36 sequence (P42680 whole entry): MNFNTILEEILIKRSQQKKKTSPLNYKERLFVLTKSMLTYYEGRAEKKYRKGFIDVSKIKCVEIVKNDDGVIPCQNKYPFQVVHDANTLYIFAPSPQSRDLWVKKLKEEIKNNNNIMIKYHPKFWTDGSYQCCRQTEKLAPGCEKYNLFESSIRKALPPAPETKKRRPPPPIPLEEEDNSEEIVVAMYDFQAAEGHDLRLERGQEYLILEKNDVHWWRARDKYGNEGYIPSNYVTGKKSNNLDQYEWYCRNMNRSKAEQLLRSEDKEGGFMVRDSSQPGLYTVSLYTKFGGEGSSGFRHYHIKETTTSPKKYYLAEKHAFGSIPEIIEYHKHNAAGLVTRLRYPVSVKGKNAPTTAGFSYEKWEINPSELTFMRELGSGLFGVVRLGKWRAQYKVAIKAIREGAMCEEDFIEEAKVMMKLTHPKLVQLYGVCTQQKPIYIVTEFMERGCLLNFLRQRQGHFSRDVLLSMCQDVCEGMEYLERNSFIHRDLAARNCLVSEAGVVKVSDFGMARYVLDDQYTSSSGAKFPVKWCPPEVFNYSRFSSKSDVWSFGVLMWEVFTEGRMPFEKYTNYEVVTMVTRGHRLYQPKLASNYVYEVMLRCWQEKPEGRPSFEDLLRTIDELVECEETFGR
T4 sequence (O60285 whole entry): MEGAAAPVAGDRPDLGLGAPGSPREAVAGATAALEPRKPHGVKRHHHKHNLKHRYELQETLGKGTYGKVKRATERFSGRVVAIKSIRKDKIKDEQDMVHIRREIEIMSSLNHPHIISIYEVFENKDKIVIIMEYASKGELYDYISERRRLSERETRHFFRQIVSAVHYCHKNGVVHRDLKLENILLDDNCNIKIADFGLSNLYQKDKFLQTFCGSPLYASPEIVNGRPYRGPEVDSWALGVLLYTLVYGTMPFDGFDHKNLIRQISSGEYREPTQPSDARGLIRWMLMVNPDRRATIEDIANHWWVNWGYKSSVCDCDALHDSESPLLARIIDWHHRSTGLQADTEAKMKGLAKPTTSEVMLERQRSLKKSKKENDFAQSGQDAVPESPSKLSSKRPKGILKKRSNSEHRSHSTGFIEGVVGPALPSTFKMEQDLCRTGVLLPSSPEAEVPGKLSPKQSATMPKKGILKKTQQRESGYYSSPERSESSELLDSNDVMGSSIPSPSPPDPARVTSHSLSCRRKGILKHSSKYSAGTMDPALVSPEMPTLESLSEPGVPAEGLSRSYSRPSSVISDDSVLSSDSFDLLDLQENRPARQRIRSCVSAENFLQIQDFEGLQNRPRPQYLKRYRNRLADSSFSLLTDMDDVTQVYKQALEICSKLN
T3 sequence (Q9Y243 whole entry): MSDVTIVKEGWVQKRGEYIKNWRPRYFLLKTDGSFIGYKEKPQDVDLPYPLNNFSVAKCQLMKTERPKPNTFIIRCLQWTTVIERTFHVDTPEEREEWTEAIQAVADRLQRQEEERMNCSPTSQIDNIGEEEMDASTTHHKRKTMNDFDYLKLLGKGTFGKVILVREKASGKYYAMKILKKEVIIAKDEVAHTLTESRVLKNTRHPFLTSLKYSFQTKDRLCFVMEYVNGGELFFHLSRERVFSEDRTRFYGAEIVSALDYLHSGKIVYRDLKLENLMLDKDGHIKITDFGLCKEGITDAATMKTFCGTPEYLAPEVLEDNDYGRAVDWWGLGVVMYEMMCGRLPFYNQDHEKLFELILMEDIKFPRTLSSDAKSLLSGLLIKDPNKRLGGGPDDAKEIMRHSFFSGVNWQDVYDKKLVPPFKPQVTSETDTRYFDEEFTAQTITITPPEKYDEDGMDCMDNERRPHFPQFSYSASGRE
T13 sequence (P54756 25-1037): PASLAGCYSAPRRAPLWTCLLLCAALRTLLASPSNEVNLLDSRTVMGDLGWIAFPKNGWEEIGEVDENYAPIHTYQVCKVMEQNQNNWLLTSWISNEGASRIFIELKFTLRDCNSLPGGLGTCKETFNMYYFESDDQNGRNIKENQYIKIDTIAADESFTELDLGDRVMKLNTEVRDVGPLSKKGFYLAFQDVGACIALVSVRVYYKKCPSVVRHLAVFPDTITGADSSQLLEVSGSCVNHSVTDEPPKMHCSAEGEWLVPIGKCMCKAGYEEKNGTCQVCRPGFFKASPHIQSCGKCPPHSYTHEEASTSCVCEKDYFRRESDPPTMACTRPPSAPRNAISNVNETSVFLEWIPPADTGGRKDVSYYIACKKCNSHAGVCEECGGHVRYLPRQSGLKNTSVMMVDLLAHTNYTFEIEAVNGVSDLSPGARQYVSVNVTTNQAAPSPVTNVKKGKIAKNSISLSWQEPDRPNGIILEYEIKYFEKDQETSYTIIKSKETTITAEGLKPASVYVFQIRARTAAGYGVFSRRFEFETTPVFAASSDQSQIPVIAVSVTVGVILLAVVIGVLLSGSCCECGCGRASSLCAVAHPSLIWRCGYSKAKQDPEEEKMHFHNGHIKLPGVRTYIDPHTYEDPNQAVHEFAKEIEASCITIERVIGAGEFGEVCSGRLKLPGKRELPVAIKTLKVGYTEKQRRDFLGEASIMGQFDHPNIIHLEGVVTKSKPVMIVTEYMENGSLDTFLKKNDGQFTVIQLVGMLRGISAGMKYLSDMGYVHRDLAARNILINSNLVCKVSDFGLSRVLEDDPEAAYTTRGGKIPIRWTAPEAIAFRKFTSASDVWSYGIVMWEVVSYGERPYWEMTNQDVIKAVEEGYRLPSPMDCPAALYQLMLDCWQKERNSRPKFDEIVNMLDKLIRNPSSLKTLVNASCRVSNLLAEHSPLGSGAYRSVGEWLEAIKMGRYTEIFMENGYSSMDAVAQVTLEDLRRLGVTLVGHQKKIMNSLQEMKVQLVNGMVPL
T16 sequence (P27361 whole entry): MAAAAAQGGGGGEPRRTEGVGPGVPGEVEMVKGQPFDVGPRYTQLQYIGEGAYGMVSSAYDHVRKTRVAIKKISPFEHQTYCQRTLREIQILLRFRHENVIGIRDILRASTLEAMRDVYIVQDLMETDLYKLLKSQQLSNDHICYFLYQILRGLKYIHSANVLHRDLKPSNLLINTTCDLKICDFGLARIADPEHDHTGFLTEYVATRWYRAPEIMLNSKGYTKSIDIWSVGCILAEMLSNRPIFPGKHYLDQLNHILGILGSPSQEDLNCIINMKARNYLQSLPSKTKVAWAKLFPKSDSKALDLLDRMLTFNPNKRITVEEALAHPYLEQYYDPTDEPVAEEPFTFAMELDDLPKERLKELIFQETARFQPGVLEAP

CCOP(=O)(CN1CCC(COc2cc3nccc(Oc4ccc(NC(=O)C5(C(=O)Nc6ccc(F)cc6)CC5)cc4F)c3cc2OC)CC1)OCC [Example 10, N1-[4-[[7-[[1-(diethoxyphosphorylmethyl)-4-piperidinyl]methoxyl]-6-methoxyl-4-quinolyl]oxyl]-3-fluorophenyl]-N1′-(4-fluorophenyl)cyclopropane-1,1-dicarboxamide]
% Ctrl@1000 nM [1]: 2.4 % Ctrl | % Ctrl@1000 nM (ACVR2A): 100 % Ctrl | % Ctrl@1000 nM (AKT3): 100 % Ctrl | % Ctrl@1000 nM (ARK5): 100 % Ctrl | % Ctrl@1000 nM (ASK2): 100 % Ctrl | % Ctrl@1000 nM (BMPR2): 100 % Ctrl | % Ctrl@1000 nM (CASK): 100 % Ctrl | % Ctrl@1000 nM (CIT): 100 % Ctrl | % Ctrl@1000 nM (CSNK1E): 100 % Ctrl | % Ctrl@1000 nM (DDR2): 7.8 % Ctrl | % Ctrl@1000 nM (EGFR(L858R,T790M)): 100 % Ctrl | % Ctrl@1000 nM (EIF2AK1): 100 % Ctrl | % Ctrl@1000 nM (EPHA5): 3.5 % Ctrl | % Ctrl@1000 nM (EPHB6): 0.9 % Ctrl | % Ctrl@1000 nM (ERBB2): 96 % Ctrl | % Ctrl@1000 nM (ERK1): 99 % Ctrl | % Ctrl@1000 nM (FGFR4): 100 % Ctrl | % Ctrl@1000 nM (FLT3(D835Y)): 2.4 % Ctrl | % Ctrl@1000 nM (HIPK3): 66 % Ctrl | % Ctrl@1000 nM (HIPK4): 0.15 % Ctrl | % Ctrl@1000 nM (HUNK): 100 % Ctrl | % Ctrl@1000 nM (MAP4K5): 2.8 % Ctrl | % Ctrl@1000 nM (MLK1): 83 % Ctrl | % Ctrl@1000 nM (MLK2): 78 % Ctrl | % Ctrl@1000 nM (PAKC-beta): 100 % Ctrl | % Ctrl@1000 nM (PHKG2): 96 % Ctrl | % Ctrl@1000 nM (PIK3CA(E542K)): 100 % Ctrl | % Ctrl@1000 nM (PIK3CA(M1043I)): 100 % Ctrl | % Ctrl@1000 nM (PIP5K1A): 100 % Ctrl | % Ctrl@1000 nM (PLK3): 100 % Ctrl | % Ctrl@1000 nM (RIPK2): 30 % Ctrl | % Ctrl@1000 nM [2]: 83 % Ctrl | % Ctrl@1000 nM (SRPK2): 100 % Ctrl | % Ctrl@1000 nM (SgK110): 100 % Ctrl | % Ctrl@1000 nM (TBK1): 79 % Ctrl | % Ctrl@1000 nM (TEC): 100 % Ctrl
